Measured values as given in ChEMBL document CHEMBL4145653, “Biosynthetic Baeyer-Villiger Chemistry Enables Access to Two Anthracene Scaffolds from a Single Gene Cluster in Deep-Sea-Derived Streptomyces olivaceus SCSIO T05” (J Nat Prod, 2018).
pIC50: −log10 of the molar value.

Experiments:
[1] = target: T1, Alpha-2-macroglobulin (Homo sapiens, UniProt P01023); assay: Inhibition of alpha-2 macroglobulin (unknown origin)
T1 sequence (P01023 whole entry): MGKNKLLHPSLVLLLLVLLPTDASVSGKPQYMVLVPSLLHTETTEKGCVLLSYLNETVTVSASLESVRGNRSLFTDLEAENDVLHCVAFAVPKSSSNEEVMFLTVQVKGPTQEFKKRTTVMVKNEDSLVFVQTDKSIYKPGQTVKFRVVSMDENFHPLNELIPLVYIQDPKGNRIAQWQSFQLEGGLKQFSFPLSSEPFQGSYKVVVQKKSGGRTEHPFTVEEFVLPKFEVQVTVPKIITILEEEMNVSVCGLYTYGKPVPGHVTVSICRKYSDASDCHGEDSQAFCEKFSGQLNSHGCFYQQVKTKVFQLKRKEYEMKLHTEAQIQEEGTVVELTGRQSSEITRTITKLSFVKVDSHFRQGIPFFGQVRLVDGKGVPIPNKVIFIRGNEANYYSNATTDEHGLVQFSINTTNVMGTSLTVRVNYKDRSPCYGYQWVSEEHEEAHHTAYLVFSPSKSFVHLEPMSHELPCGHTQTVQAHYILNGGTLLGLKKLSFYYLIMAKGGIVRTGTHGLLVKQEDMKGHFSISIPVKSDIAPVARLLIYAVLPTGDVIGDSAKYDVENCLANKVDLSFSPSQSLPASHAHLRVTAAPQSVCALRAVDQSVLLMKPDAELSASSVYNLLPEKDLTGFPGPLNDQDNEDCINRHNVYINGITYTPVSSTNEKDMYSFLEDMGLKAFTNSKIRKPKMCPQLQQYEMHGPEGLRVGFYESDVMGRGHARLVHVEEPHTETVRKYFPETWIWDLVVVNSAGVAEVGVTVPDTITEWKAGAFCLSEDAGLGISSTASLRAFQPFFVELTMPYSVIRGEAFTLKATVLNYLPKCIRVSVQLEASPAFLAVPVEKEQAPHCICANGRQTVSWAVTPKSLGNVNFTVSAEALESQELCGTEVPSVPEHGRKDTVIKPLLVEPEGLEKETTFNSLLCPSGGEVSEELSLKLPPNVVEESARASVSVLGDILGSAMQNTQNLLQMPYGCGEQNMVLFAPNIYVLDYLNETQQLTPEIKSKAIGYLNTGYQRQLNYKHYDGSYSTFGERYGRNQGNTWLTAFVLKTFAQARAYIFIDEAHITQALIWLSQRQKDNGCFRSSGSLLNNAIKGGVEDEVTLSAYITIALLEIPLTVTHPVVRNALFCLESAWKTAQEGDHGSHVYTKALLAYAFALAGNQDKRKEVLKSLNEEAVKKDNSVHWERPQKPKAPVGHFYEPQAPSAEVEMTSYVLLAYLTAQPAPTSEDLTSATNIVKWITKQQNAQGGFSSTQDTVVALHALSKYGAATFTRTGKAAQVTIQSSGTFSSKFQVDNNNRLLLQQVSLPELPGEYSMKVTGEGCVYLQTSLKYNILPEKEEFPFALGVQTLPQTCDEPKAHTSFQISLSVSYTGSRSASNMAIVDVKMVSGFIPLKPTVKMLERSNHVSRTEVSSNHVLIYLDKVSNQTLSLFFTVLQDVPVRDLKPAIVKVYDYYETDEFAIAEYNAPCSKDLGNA

[2] = Inhibition of glutathione S-transferase (unknown origin); design: species or system Homo sapiens

Row | pIC50 [1] | pIC50 [2] | SMILES
1 | 4.03 | 4.57 | CC(C)CC[C@@]1(O)c2cc3c(O)cccc3cc2C(=O)[C@H](C)[C@]1(O)C(=O)O
2 | 3.59 |  | CC(C)CC[C@]1(O)[C@@]2(O)C(=O)O[C@]13C(=Cc1cccc(O)c1[C@@H]3O)C(=O)[C@@H]2C
